The record followed here is patent publication US20260217735A1, “HETEROCYCLES AND USES THEREOF” (Kumquat Biosciences Inc., priority 2023, published 2026).

The target of test [1] is T1, KRAS G12D (Homo sapiens, UniProt P01116, G12D).
T1 construct: made in house; host or cells: E. coli, e.g. BL21 (DE3)
The experiment in a line: HTRF assay, KRAS G12D interaction with SOS1. The class given is biochemical. The following applies: bins <500 nM / 500 nM to 1000 nM, read-out: Inhibition of KRAS G12D (IC50). A general note: Time-resolved FRET reads energy transfer from a long-lived donor to a nearby acceptor.

For test [2], the target named is T2, KRAS WT (Homo sapiens, UniProt P01116).
T2 construct: made in house; host or cells: E. coli, e.g. BL21 (DE3)
Kind of test: HTRF assay, wildtype KRAS interaction with SOS1. The test is classed as biochemical. The following applies: bins <500 nM / 500 nM to 1000 nM, read-out: Inhibition of KRAS WT (IC50).

The target of test [3] is T3, KRAS G12V (Homo sapiens, UniProt P01116, G12V).
T3 construct: made in house; host or cells: E. coli, e.g. BL21 (DE3)
Kind of test: HTRF assay, KRAS G12V interaction with SOS1. The following applies: bins <500 nM / 500 nM to 1000 nM, read-out: Inhibition of KRAS G12V (IC50). The test is classed as biochemical.

Test [4] addresses T4, KRAS G12S (Homo sapiens, UniProt P01116, G12S).
T4 construct: made in house; host or cells: E. coli, e.g. BL21 (DE3)
Kind of test: HTRF assay, KRAS G12S interaction with SOS1. The class given is biochemical. The following applies: bins <500 nM / 500 nM to 1000 nM, read-out: Inhibition of KRAS G12S (IC50).

In test [5] the test system is MiaPaca2 cells. Kind of test: Ras cellular assay, growth of cells with K-Ras G12C mutation. The following applies: Homo sapiens, MIA PaCa-2; cell proliferation assay; bins ≤500 nM / >500 nM; read-out: Inhibition of MiaPaca2 Cells (IC50). The test is classed as cell-based. In a few lines: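 Anchorage-independent growth: G12C-mutant MIA PaCa-2 plated in soft agar, time-zero plate read the next day when compound was dosed (final DMSO 0.3%). After growth to day 10, MTS-type absorbance at 490/660 nm relative to time zero gave IC50 via four-parameter fitting.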

T3 sequence (P01116 1-188 isoform P01116-2 G12V): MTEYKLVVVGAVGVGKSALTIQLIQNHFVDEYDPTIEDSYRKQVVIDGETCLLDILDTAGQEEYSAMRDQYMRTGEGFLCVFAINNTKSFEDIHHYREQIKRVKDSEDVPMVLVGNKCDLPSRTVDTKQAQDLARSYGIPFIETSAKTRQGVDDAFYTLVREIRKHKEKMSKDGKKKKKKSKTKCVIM
T1 sequence (P01116 1-188 isoform P01116-2 G12D): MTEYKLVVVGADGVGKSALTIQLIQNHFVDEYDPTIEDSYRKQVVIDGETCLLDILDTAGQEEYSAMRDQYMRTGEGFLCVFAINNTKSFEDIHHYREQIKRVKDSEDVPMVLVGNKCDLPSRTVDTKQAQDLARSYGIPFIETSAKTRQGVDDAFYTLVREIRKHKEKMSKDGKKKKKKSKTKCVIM
T2 sequence (P01116 1-188 isoform P01116-2): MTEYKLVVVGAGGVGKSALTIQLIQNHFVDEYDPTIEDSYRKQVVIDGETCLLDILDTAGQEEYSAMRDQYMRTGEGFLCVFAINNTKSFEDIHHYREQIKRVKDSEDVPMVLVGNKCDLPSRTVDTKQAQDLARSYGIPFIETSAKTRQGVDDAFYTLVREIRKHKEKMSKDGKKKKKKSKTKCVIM
T4 sequence (P01116 1-188 isoform P01116-2 G12S): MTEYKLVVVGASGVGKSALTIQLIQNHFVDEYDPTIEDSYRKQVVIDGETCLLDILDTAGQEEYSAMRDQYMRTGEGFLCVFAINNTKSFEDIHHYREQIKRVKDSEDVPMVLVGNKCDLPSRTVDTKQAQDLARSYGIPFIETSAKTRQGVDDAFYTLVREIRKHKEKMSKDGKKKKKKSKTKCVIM

As a reminder, the IC50 is the concentration that gives 50% inhibition. As for `Cc1cn(C(=O)N2CC3(CCCCN(c4nc(OC[C@@]56CCCN5C[C@H](F)C6)nc5c(F)c(-c6ccc(F)c7sc(N)c(C#N)c67)c(Cl)cc45)C3)C2)c(C)n1` [Compound 138, 2-amino-4-(6-chloro-4-(2-(2,4-dimethyl-1H-imidazole-1-carbonyl)-2,6-diazaspiro[3.6]decan-6-yl)-8-fluoro-2-(((2R,7aS)-2-fluorotetrahydro-1H-pyrrolizin-7a(5H)-yl)methoxy)quinazolin-7-yl)-7-fluorobenzo[b]thiophene-3-carbonitrile], the 50% inhibitory concentration (IC50) in test [1] is below 500 nM; in test [2], below 500 nM; in test [3] it was below 500 nM; in test [4] it was below 500 nM; in test [5], at most 500 nM.
Take `CCN(c1nc(OC[C@@]23CCCN2C[C@H](F)C3)nc2c(F)c(-c3ccc(F)c4sc(N)c(C#N)c34)c(C(F)(F)F)cc12)[C@@H]1CCN(C(=O)n2cnc(C#N)c2C)[C@@H]1C` [Compound 139, 1-((2R,3R)-3-((7-(2-amino-3-cyano-7-fluorobenzo[b]thiophen-4-yl)-8-fluoro-2-(((2R,7aS)-2-fluorotetrahydro-1H-pyrrolizin-7a(5H)-yl)methoxy)-6-(trifluoromethyl)quinazolin-4-yl)(ethyl)amino)-2-methylpyrrolidine-1-carbonyl)-5-methyl-1H-imidazole-4-carbonitrile]: the IC50 in test [1] is below 500 nM; in test [2], below 500 nM; in test [3] it was below 500 nM; in test [4], below 500 nM; in test [5] it was at most 500 nM.
With `Cc1ncn(C(=O)N2CC3CCN(c4nc(OC[C@@]56CCCN5C[C@H](F)C6)nc5c(F)c(-c6ccc(F)c7sc(N)c(C#N)c67)c(Cl)cc45)C3C2)c1C` (stereo partly drawn) [Compound 140, 2-amino-4-(6-chloro-4-(5-(4,5-dimethyl-1H-imidazole-1-carbonyl)hexahydropyrrolo[3,4-b]pyrrol-1(2H)-yl)-8-fluoro-2-(((2R,7aS)-2-fluorotetrahydro-1H-pyrrolizin-7a(5H)-yl)methoxy)quinazolin-7-yl)-7-fluorobenzo[b]thiophene-3-carbonitrile], the IC50 is below 500 nM in test [1]; below 500 nM in test [2]; below 500 nM in test [3]; below 500 nM in test [4]; at most 500 nM in test [5].
Consider `Cc1c(C#N)ncn1C(=O)N1CC[C@@H](N(C)c2nc(OC[C@@]34CCCN3C[C@H](F)C4)nc3c(F)c(-c4ccc(F)c5sc(N)c(C#N)c45)c(Cl)cc23)[C@H]1C` [Compound 141, 1-((2R,3R)-3-((7-(2-amino-3-cyano-7-fluorobenzo[b]thiophen-4-yl)-6-chloro-8-fluoro-2-(((2R,7aS)-2-fluorotetrahydro-1H-pyrrolizin-7a(5H)-yl)methoxy)quinazolin-4-yl)(methyl)amino)-2-methylpyrrolidine-1-carbonyl)-5-methyl-1H-imidazole-4-carbonitrile], for which the IC50 in test [1] is below 500 nM; in test [2] it was below 500 nM; in test [3], below 500 nM; in test [4], below 500 nM; in test [5], at most 500 nM.
As for `Cc1cn(C(=O)N2CC[C@@H](N(C)c3nc(OC[C@@]45CCCN4C[C@H](F)C5)nc4c(F)c(-c5ccc(F)c6sc(N)c(C#N)c56)c(Cl)cc34)[C@H]2C)cn1` [Compound 144, 2-amino-4-(6-chloro-8-fluoro-2-(((2R,7aS)-2-fluorotetrahydro-1H-pyrrolizin-7a(5H)-yl)methoxy)-4-(methyl((2R,3R)-2-methyl-1-(4-methyl-1H-imidazole-1-carbonyl)pyrrolidin-3-yl)amino)quinazolin-7-yl)-7-fluorobenzo[b]thiophene-3-carbonitrile], the IC50 in test [1] is below 500 nM; in test [2], below 500 nM; in test [3], below 500 nM; in test [4] it was below 500 nM; in test [5], at most 500 nM.
`CCN(c1nc(OC[C@@]23CCCN2C[C@H](F)C3)nc2c(F)c(-c3ccc(F)c4sc(N)c(C#N)c34)c(Cl)cc12)[C@@H]1CCN(C(=O)n2cnc(C)c2C)[C@@H]1C` [Compound 145, 2-amino-4-(6-chloro-4-(((2R,3R)-1-(4,5-dimethyl-1H-imidazole-1-carbonyl)-2-methylpyrrolidin-3-yl)(ethyl)amino)-8-fluoro-2-(((2R,7aS)-2-fluorotetrahydro-1H-pyrrolizin-7a(5H)-yl)methoxy)quinazolin-7-yl)-7-fluorobenzo[b]thiophene-3-carbonitrile]: the IC50 in test [1] is below 500 nM; in test [2], below 500 nM; in test [3], below 500 nM; in test [4] it was below 500 nM; in test [5] it was at most 500 nM.
Turning to `Cc1ncn(C(=O)N2CC[C@@]23CCN(c2nc(OC[C@@]45CCCN4C[C@H](F)C5)nc4c(F)c(-c5ccc(F)c6sc(N)c(C#N)c56)c(Cl)cc24)C3)c1C` [Compound 147, 2-amino-4-(6-chloro-4-((R)-1-(4,5-dimethyl-1H-imidazole-1-carbonyl)-1,6-diazaspiro[3.4]octan-6-yl)-8-fluoro-2-(((2R,7aS)-2-fluorotetrahydro-1H-pyrrolizin-7a(5H)-yl)methoxy)quinazolin-7-yl)-7-fluorobenzo[b]thiophene-3-carbonitrile], the IC50 was below 500 nM in test [1]; below 500 nM in test [2]; below 500 nM in test [3]; below 500 nM in test [4]; at most 500 nM in test [5].
`CCN(c1nc(OC[C@@]23CCCN2C[C@H](F)C3)nc2c(F)c(-c3ccc(F)c4sc(N)c(C#N)c34)c(C(F)(F)F)cc12)[C@@H]1CCN(C(=O)n2ccnc2C)[C@@H]1C` [Compound 148, 2-amino-4-(4-(ethyl((2R,3R)-2-methyl-1-(2-methyl-1H-imidazole-1-carbonyl)pyrrolidin-3-yl)amino)-8-fluoro-2-(((2R,7aS)-2-fluorotetrahydro-1H-pyrrolizin-7a(5H)-yl)methoxy)-6-(trifluoromethyl)quinazolin-7-yl)-7-fluorobenzo[b]thiophene-3-carbonitrile]: the half-inhibitory concentration (IC50) in test [1] was below 500 nM; in test [2], below 500 nM; in test [3] it was below 500 nM; in test [4], below 500 nM; in test [5] it was at most 500 nM.
As to `CCN(c1nc(OC[C@@]23CCCN2C[C@H](F)C3)nc2c(F)c(-c3ccc(F)c4sc(N)c(C#N)c34)c(Cl)cc12)[C@@H]1CCN(C(=O)n2cnc(C#N)c2C)[C@@H]1C` [Compound 149, 1-((2R,3R)-3-((7-(2-amino-3-cyano-7-fluorobenzo[b]thiophen-4-yl)-6-chloro-8-fluoro-2-(((2R,7aS)-2-fluorotetrahydro-1H-pyrrolizin-7a(5H)-yl)methoxy)quinazolin-4-yl)(ethyl)amino)-2-methylpyrrolidine-1-carbonyl)-5-methyl-1H-imidazole-4-carbonitrile], the IC50 in test [1] is below 500 nM; in test [2], below 500 nM; in test [3], below 500 nM; in test [4], below 500 nM; in test [5], at most 500 nM.
Take `Cc1cn(C(=O)N(C)C2CN(c3nc(OC[C@@]45CCCN4C[C@H](F)C5)nc4c(F)c(-c5ccc(F)c6sc(N)c(C#N)c56)c(Cl)cc34)CC2F)cn1` (stereo partly drawn) [Compound 151, N-(1-((R)-7-(2-amino-3-cyano-7-fluorobenzo[b]thiophen-4-yl)-6-chloro-8-fluoro-2-(((2R,7aS)-2-fluorotetrahydro-1H-pyrrolizin-7a(5H)-yl)methoxy)quinazolin-4-yl)-4-fluoropyrrolidin-3-yl)-N,4-dimethyl-1H-imidazole-1-carboxamide]: the 50% inhibitory concentration (IC50) is below 500 nM in test [1]; below 500 nM in test [2]; below 500 nM in test [3]; below 500 nM in test [4]; at most 500 nM in test [5].
As to `CC[C@H]1N(C(=O)n2cnc(C#N)c2C)C[C@]12CCCCN(c1nc(OC[C@@]34CCCN3C[C@H](F)C4)nc3c(F)c(-c4ccc(F)c5sc(N)c(C#N)c45)c(Cl)cc13)C2` [Compound 152, 1-((1R,4R)-6-(7-(2-amino-3-cyano-7-fluorobenzo[b]thiophen-4-yl)-6-chloro-8-fluoro-2-(((2R,7aS)-2-fluorotetrahydro-1H-pyrrolizin-7a(5H)-yl)methoxy)quinazolin-4-yl)-1-ethyl-2,6-diazaspiro[3.6]decane-2-carbonyl)-5-methyl-1H-imidazole-4-carbonitrile], the IC50 in test [1] was below 500 nM; in test [2], below 500 nM; in test [3], below 500 nM; in test [4] it was below 500 nM; in test [5] it was at most 500 nM.
`Cc1nccn1C(=O)N1CC2(CCCCN(c3nc(OC[C@@]45CCCN4C[C@H](F)C5)nc4c(F)c(-c5ccc(F)c6sc(N)c(C#N)c56)c(Cl)cc34)C2)C1` [Compound 154, 2-amino-4-(6-chloro-8-fluoro-2-(((2R,7aS)-2-fluorotetrahydro-1H-pyrrolizin-7a(5H)-yl)methoxy)-4-(2-(2-methyl-1H-imidazole-1-carbonyl)-2,6-diazaspiro[3.6]decan-6-yl)quinazolin-7-yl)-7-fluorobenzo[b]thiophene-3-carbonitrile]: the IC50 was below 500 nM in test [1]; below 500 nM in test [2]; below 500 nM in test [3]; below 500 nM in test [4]; at most 500 nM in test [5].
